Experimental data reported in patent publication US8211856B2, “Use of somatostatin-14 as a therapeutic agent” (mondoBIOTECH Laboratories AG, priority 2007, dated 2012).
No end group written: not given here.

Legend:
[1] = system: HIV-1IIIB; test: HIV-1 antiviral assay in CEM-SS cells; conditions: HIV-1 assay
[2] = system: HCMV strain AD169; test: HCMV plaque formation assay in MRC-5 cells; type: cell-based; conditions: for inhibition of HCMV plaque formation as compared to the virus control experiment: 10 micrograms per ml, 7-10 days
[3] = system: HUVEC; test: Endothelial tube formation assay; type: cell-based, human; conditions: 10 micrograms per ml; 20 hours
Excerpt: Positive control was vehicle only.

[4] = system: murine spleen cells; test: Th1/Th2 cytokine profiling assay (Ovalbumin-restimulated spleen cells); type: cell-based, Balb/c mice; conditions: 10 micrograms per ml; Ovalbumin restimulation, 72 hours
Excerpt: The Balb/c mice (originated in 1923, it is a popular strain and is used in many different research disciplines. Also classified as an inbred from the production of 20 or more successive brother-sister matings, the Balb/c mouse is albino and small in size) were immunized on Days 1, 15, and 29 with Ovalbumin (Ovalbumin is the main protein found in egg white, commonly used to stimulate an immunological reaction in test animals) in PBS (5 micrograms/injection). On day 50, spleens of the mice were harvested (3 weeks after last boost with Ovalbumin). […] Thereafter, additional Ovalbumin was added to the cells at 10 micrograms/ml for in vitro restimulation of the cells. 72 hours later, cell supernatants were harvested and assayed using the Becton Dickinson Mouse Th1/Th2 Cytokine CBA Kit.

[5] = system: Primary Human endothelial cells (HUVEC); test: Endothelial cell migration assay; type: cell-based; conditions: 10 micrograms per ml; 22 hours
[6] = system: Human A549 cells; test: Apoptosis prevention assay (C2 ceramide, Annexin-5); type: cell-based; conditions: 10 micrograms per ml; 30 min pretreatment, then C2 ceramide
Method: Human A549 cells (carcinomic human alveolar basal epithelial cells) were utilized in the experiments employing the Annexin-5 apoptosis assay. […] A549 cells were pretreated for 30 min with test peptides—10 micrograms per ml—followed by the exposure to C2 ceramide.

[7] = system: hepatitis B virus (HBV) ayw strain; test: HBV experimental assay system (HepG2-2.2.15, TaqMan PCR of secreted HBV DNA); type: cell-based; conditions: 10 micrograms per ml; six days; HBV DNA in supernatant
[8] = system: Human A549 cells; test: Apoptosis induction assay (Annexin-5); type: cell-based; conditions: 10 micrograms per ml; 24 hours

| Molecule | antiviral activity of positive control compounds [1] | tube formation of human endothelial cells, inhibited by [3] | inhibition of HCMV plaque formation as compared to the virus control experiment [2] | production of IL-2, induced by [4] | production of IL-4, induced by [4] | production of IL-5, decreased by [4] | production of TNF-alpha, induced by [4] | inhibition of HBV replication as compared to the virus control infection [7] | induction of apoptosis on human lung cells [8] | further results |
| --- | --- | --- | --- | --- | --- | --- | --- | --- | --- | --- |
| Cc1cn([C@H]2C[C@H](N=[N+]=[N-])[C@@H](CO)O2)c(=O)[nH]c1=O [AZT] | expected levels of antiviral activity | – | – | – | – | – | – | – | – | – |
| Nc1nc(O)c2ncn(COC(CO)CO)c2n1 [Ganciclovir, reference compound] | – | – | – | – | – | – | – | – | – | antiviral activity of positive control compound ([2]; positive control, HCMV assay): expected levels of antiviral activity |
| CC(C)(C)NC(=O)[C@@H]1CN(Cc2cccnc2)CCN1C[C@@H](O)C[C@@H](Cc1ccccc1)C(=O)N[C@H]1c2ccccc2C[C@H]1O [indinavir] | expected levels of antiviral activity | – | – | – | – | – | – | – | – | – |
| Ala-Gly-Cys-Lys-Asn-Phe-Phe-Trp-Lys-Thr-Phe-Thr-Ser-Cys-OH (AGCKNFFWKTFTSC-OH; ends and bridges not checked) [Peptide 1] | – | 9% | 1.8% | 102.7% | did not significantly change | did not significantly change | 27.5% | 14.1% | 9.4% | production of IFN-gamma, induced by [4]: 65.1%; migration of human endothelial cells, inhibited by [5]: 3%; induction of apoptosis on human lung cells (ceramide-induced apoptosis) [6]: 27% |
| Gly-Pro-Glu-OH [Peptide 2] | – | 20% | 2.9% | 24.0% | 52.7% | 37.2% | did not significantly change | 30.7% | 1.4% | production of IFN-gamma, decreased by [4]: 42.5%; migration of human endothelial cells, induced by [5]: 11% |
